# Laboratory results taken from ChEMBL document CHEMBL3832050, “DailyMed|setid=da574350-be6b-49f3-b2ef-64da06af9b9d | PAMDRONATE DISODIUM - pamodronate disodium injection, solution|GENERAMEDIX, INC”.
# Legend:
# Homo sapiens = assay: (§1) Mean pharmacokinetic parameters for Pamidronate after intravenous infusion of 30, 60 and 90 mg of Pamidronate disodium for 4 hours and 90 mg for 24 hours in cancer patients, 6 in each group.; format: ADME, organism-based; parameters: dose 90 mg, dose 30 mg, dose 60 mg, route iv; conditions: in vivo, iv, dosed compound id 8, dosed compound name PAMIDRONATE DISODIUM, gender male and female, regimen Single dose; for Excretion: tissue Urine
# [1] = as §1; format: ADME, organism-based; parameters: dose 90 mg, dose 30 mg, dose 60 mg, route iv; conditions: human, in vivo, dosed compound id 8, dosed compound name PAMIDRONATE DISODIUM, gender male and female, regimen Single dose, route iv, study dosing duration 4 hours
# [2] = dose 60 mg, study dosing duration 4 hours, tissue Plasma
# [3] = dose 90 mg, study dosing duration 4 hours, tissue Plasma
# [4] = dose 90 mg, study dosing duration 24 hours, tissue Plasma
structure (smiles),measurement,setting,value
NCCC(O)(P(=O)([O-])O)P(=O)([O-])O.[Na+].[Na+],Excretion,"Homo sapiens; at 60 mg, study dosing duration 4 hours",47.4%
same,Excretion,"Homo sapiens; at 90 mg, study dosing duration 4 hours",45.3%
same,Excretion,"Homo sapiens; at 90 mg, study dosing duration 24 hours",47.5%
same,CL,Homo sapiens; [2],88 mL/min
same,CL_renal,Homo sapiens; [2],42 mL/min
same,CL,Homo sapiens; [3],103 mL/min
same,CL_renal,Homo sapiens; [3],44 mL/min
same,CL,Homo sapiens; [4],101 mL/min
same,CL_renal,Homo sapiens; [4],52 mL/min
same,Cmax,"Homo sapiens; study dosing duration 24 hours, tissue Plasma",1380 ng/mL
same,dose excreted,"[1]; iv, at 30 mg, tissue Urine, read-out: Excretion",43.9%
same,clearance,"[1]; dose 30 mg, tissue Plasma",136 mL/min
same,CL renal,"[1]; dose 30 mg, tissue Plasma, read-out: CL_renal",58 mL/min
